In the supplement of paper PMC10307832:

Key:
Experiment in all cases: relative viability (nuclei count vs DMSO), 5 days (fraction); higher = more cells survive
[1] = compound: N[C@@H]1CCCN(c2c(/C=C3\SC(=O)NC3=O)cccc2-c2ccccc2)C1 [AZD1208] + CS(=O)(=O)CCNCc1ccc(-c2ccc3ncnc(Nc4ccc(OCc5cccc(F)c5)c(Cl)c4)c3c2)o1 [Lapatinib] (partner 2 µM)
Summary of the method: (§1)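 Cells from lung cancer lines were seeded into 1536-well plates and, one day later, dosed by pin tool. Treatments were either a single drug or a fixed dose of an anchor drug with five library-drug doses (not always all listed) in √10 steps. After 5 days, nuclei were stained in a one-step fixation (final 0.05% Triton X-100, 1% formaldehyde, 1 ug/ml Hoechst) and counted on 4× images, and relative viability is the treated-to-vehicle nuclei ratio, as the median of duplicate plates.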

[2] = compound: CN1CCN(CC1)C2=CC(=C(C=C2)NC3=NC(=C(S3)C(=O)C4=C(C=CC=C4Cl)Cl)N)OC [XMD14-99] + N=C(N)NC(=N)NCCc1ccccc1 [Phenformin] (partner 250 µM)
Summary of the method: as §1

[3] = compound: N[C@@H]1CCCN(c2c(/C=C3\SC(=O)NC3=O)cccc2-c2ccccc2)C1 [AZD1208] + O=C(CCCCCCC(=O)Nc1ccccc1)NO [Vorinostat] (partner 1 µM)
Summary of the method: as §1

[4] = compound: CN1CCN(CC1)C2=CC(=C(C=C2)NC3=NC(=C(S3)C(=O)C4=C(C=CC=C4Cl)Cl)N)OC [XMD14-99] + O=C(CCCCCCC(=O)Nc1ccccc1)NO [Vorinostat] (partner 1 µM)
Summary of the method: as §1

| Cell Line | relative viability ([1]; first compound 0.08 µM) | relative viability ([1]; first compound 0.253 µM) | relative viability ([1]; first compound 0.8 µM) | relative viability ([1]; first compound 2.53 µM) | relative viability ([1]; first compound 8 µM) | relative viability ([2]; first compound 0.08 µM) | relative viability ([2]; first compound 0.8 µM) | relative viability ([2]; first compound 2.53 µM) | relative viability ([2]; first compound 8 µM) | relative viability ([3]; first compound 0.08 µM) | relative viability ([3]; first compound 0.253 µM) | relative viability ([3]; first compound 0.8 µM) | relative viability ([3]; first compound 2.53 µM) | relative viability ([3]; first compound 8 µM) | relative viability ([4]; first compound 0.08 µM) | relative viability ([4]; first compound 0.8 µM) | relative viability ([4]; first compound 2.53 µM) | relative viability ([4]; first compound 8 µM) |
| --- | --- | --- | --- | --- | --- | --- | --- | --- | --- | --- | --- | --- | --- | --- | --- | --- | --- | --- |
| NCI-H838 | 0.988 | 1.17 | 0.856 | 0.936 | 0.86 | 0.612 | 0.556 | 0.474 | 0.383 | 0.679 | 0.661 | 0.639 | 0.682 | 0.689 | 0.685 | 0.626 | 0.577 | 0.414 |
| H3255 | 0.258 | 0.231 | 0.225 | 0.219 | 0.22 | 0.384 | 0.398 | 0.337 | 0.335 | 0.831 | 0.869 | 0.772 | 0.747 | 0.74 | 0.756 | 0.74 | 0.717 | 0.591 |
| SK-MES-1 | 0.407 | 0.418 | 0.421 | 0.415 | 0.374 | 0.644 | 0.647 | 0.575 | 0.475 | 1.07 | 1.14 | 1.07 | 1.01 | 1.02 | 1.08 | 1.08 | 1.05 | 0.657 |
| NCI-H1437 | 0.833 | 1.04 | 0.69 | 0.775 | 0.691 | 0.321 | 0.316 | 0.244 | 0.237 | 0.805 | 0.93 | 0.933 | 1 | 0.857 | 0.797 | 0.66 | 0.641 | 0.382 |
| LU99A | 0.864 | 0.985 | 0.937 | 0.919 | 0.728 | 0.888 | 0.917 | 0.728 | 0.603 | 0.471 | 0.618 | 0.481 | 0.467 | 0.332 | 0.53 | 0.462 | 0.444 | 0.37 |
| HCC-827 | 0.15 | 0.192 | 0.189 | 0.173 | 0.226 | 0.406 | 0.37 | 0.377 | 0.308 | 0.991 | 0.904 | 0.861 | 0.839 | 0.78 | 0.929 | 0.571 | 0.74 | 0.701 |
| LK-2 | 0.738 | 0.616 | 0.63 | 0.39 | 0.447 | 0.363 | 0.368 | 0.423 | 0.215 | 0.329 | 0.322 | 0.255 | 0.302 | 0.247 | 0.364 | 0.396 | 0.548 | 0.462 |
| HCC-366 | 1.06 | 1.17 | 0.951 | 1.13 | 0.933 | 0.647 | 0.636 | 0.564 | 0.554 | 0.373 | 0.473 | 0.391 | 0.36 | 0.291 | 0.42 | 0.324 | 0.296 | 0.218 |
| BEN | 0.677 | 0.449 | 0.524 | 0.568 | 0.437 | 0.26 | 0.292 | 0.248 | 0.257 | 0.61 | 0.584 | 0.49 | 0.503 | 0.427 | 0.591 | 0.547 | 0.595 | 0.522 |
| NCI-H2347 | 1.09 | 1.11 | 0.896 | 0.843 | 0.97 | 0.529 | 0.422 | 0.406 | 0.251 | 0.531 | 0.767 | 0.533 | 0.599 | 0.803 | 0.533 | 0.598 | 0.455 | 0.358 |
| NCI-H1395 | 1.12 | 0.918 | 0.945 | 1.1 | 0.812 | 0.471 | 0.458 | 0.404 | 0.438 | 0.974 | 0.731 | 0.632 | 0.698 | 0.546 | 0.889 | 0.891 | 0.761 | 0.527 |
| 201T | 1.03 | 0.992 | 1.04 | 1.08 | 0.913 | 0.449 | 0.441 | 0.422 | 0.41 | 0.961 | 1.01 | 0.967 | 0.949 | 0.952 | 0.962 | 0.93 | 0.948 | 0.815 |
| NCI-H2170 | 0.263 | 0.257 | 0.257 | 0.265 | 0.299 | 0.393 | 0.388 | 0.342 | 0.3 | 0.864 | 0.923 | 0.76 | 0.779 | 0.5 | 0.784 | 0.832 | 0.741 | 0.609 |
| NCI-H520 | 0.805 | 1.07 | 0.806 | 0.83 | 0.629 | 0.603 | 0.526 | 0.498 | 0.361 | 0.735 | 0.73 | 0.711 | 0.768 | 0.449 | 0.686 | 0.635 | 0.658 | 0.454 |
| NCI-H727 | 0.597 | 0.754 | 0.755 | 0.672 | 0.59 | 0.423 | 0.43 | 0.419 | 0.374 | 0.925 | 1.14 | 1.11 | 1.11 | 1.03 | 1.25 | 0.989 | 1.06 | 0.994 |
| HCC-15 | 0.871 | 0.858 | 0.874 | 0.858 | 0.831 | 0.51 | 0.499 | 0.419 | 0.321 | 0.805 | 0.859 | 0.834 | 0.83 | 0.692 | 0.839 | 0.825 | 0.728 | 0.587 |
| ABC-1 | 1.14 | 0.904 | 1.05 | 1.09 | 1.06 | 0.237 | 0.203 | 0.227 | 0.232 | 1.75 | 1.08 | 0.922 | 0.997 | 1.02 | 1.13 | 0.996 | 1.01 | 0.646 |
| NCI-H460 | 1.03 | 1.71 | 0.867 | 1.01 | 0.964 | 0.517 | 0.498 | 0.431 | 0.325 | 0.731 | 0.858 | 0.732 | 0.708 | 0.737 | 0.735 | 0.693 | 0.625 | 0.49 |
